How the values were obtained:
[1] = tested on: HIV-1AGFP infected PBMC; assay: Killing of HIV-1 infected PBMC, proportion of GFP expressing cells by flow cytometry; format: cell-based, human; details: 1 μM NNRTI, added day 2 post infection with AMD-3100, 5 days
Description: PBMC isolated from healthy blood donors were activated and infected with a replication competent HIV-1 derivative which carries a gfp gene in the nef locus [49]. The co-receptor antagonist AMD-3100 was added at day 2 post infection to prevent further viral spread.

[2] = tested on: HXB2D-EGFP infected CD4 positive cells isolated from PBMC; assay: Killing of HIV-1 infected CD4 positive primary T-cells, flow cytometry; format: cell-based, human; details: 1 μM NNRTI + 1 μM AZT, 3 days
Description: To validate our results obtained for the persistently infected cell line in a more relevant cell system we performed additional infection experiments using human peripheral blood mononuclear cells (PBMC). […]. PBMC isolated from healthy blood donors were activated and infected with a replication competent HIV-1 derivative which carries a gfp gene in the nef locus. The co-receptor antagonist AMD-3100 was added at day 2 post infection to prevent further viral spread. This was done to distinguish the proposed killing of infected cells from the inhibitory effect of NNRTIs and PIs on virus replication. […]. […] Similar results were obtained upon infection of CD4-positive primary T-cells with an EGFP-expressing virus (Figure 4B).
Figure 4 NNRTI induced selective killing of HIV-1 infected primary human cells. (A) PBMC prepared from buffy coats of healthy blood donors were infected with HIV-1AGFP. At day 2 post infection, 100 ng/ml AMD-3100 was added to all samples to prevent further infection. […] After further incubation for 5 days, cells were harvested and analyzed for the proportion of infected GFP expressing cells by flow cytometry. […] P-values were calculated using a two-tailed unpaired t-test (GraphPad Prism). Values were normalized to the respective solvent control. (B) CD4 positive cells isolated from PBMC were infected with HXB2D-EGFP. […] After further incubation for 3 days, cells were harvested and analyzed for the proportion of infected cells by flow cytometry. […] Asterisks: non-infected controls.
Peripheral blood mononuclear cells (PBMC) were purified from buffy coats of HIV-negative blood donors, grown in supplemented RPMI 1640 and stimulated by the addition of 10 ng/ml IL-2 (Biomol) and 2 μg/ml PHA (Sigma). PBMC pooled from two donors each were used for infection. […] For infection of PBMC, the HIV-1 derivatives HIV-1-AGFP [49] carrying the gfp gene fused to the codon for amino acid 16 of Nef in pNL4-3, or HXB2D-EGFP [60], which carries an egfp gene in the place of the viral nef open reading frame, were used as indicated. […]

NS(=O)(=O)c1ccc(NC(=O)CSc2nnc(Br)n2-c2ccc(C3CC3)c3ccccc23)c(Cl)c1 [VRX-480773]
Infected primary cells (PBMC) as compared with the control [1]: significant reduction
Cytotoxicity on infected CD4-positive primary T-cells [2]: PR dependent cytotoxicity
